Source: patent publication US9808470B2, “Estrogenic components for use in the treatment of neurological disorders” (UNIVERSITE DE LIEGE, priority 2012, dated 2017)

How the values were obtained:
[1] = tested on: Myelin Basic Protein (MBP); assay: Ex.7 neuroprotective HIE rat model: myelin basic protein staining; type: in vivo; details: vs vehicle
Description: FIG. 21. Myelin Basic Protein (MBP) staining of brain coronal sections in rat pups that were pre-treated with estetrol. Brains were removed upon sacrifice at postnatal day 14 and paraformaldehyde-fixed and paraffin-embedded brain samples were coronally sectioned at the hippocampus region. The sections were processed for detection of white matter damage through immunohistological staining with anti-MBP antibody. (A-F) MBP staining of brain coronal sections (scale bar: 2 mm) is shown. (G-L) MBP staining of cingulum of the left hemisphere is (scale bar: 2 mm) shown. (M) The ratio of the MBP positive areas OD ratio was calculated as the MBP positive area OD of the ipsilateral hemisphere divided by the MBP positive area OD of the contralateral hemisphere. 10 samples from each study group were analyzed. The ratio of the MBP positive area OD in the Sham group was considered by default as 1.0.
The sections were processed for immunohistochemical detection of neuronal myelin basic protein disruption. For antigen retrieval, the sections were heated in 10 mmol/L citrate buffer (pH 6.0) at 100° C. for 10 min. […] 10 samples from each study group of both study designs were analyzed with the aid of an image scanner (Nanozoomer Virtual Microscopy, Hamamatsu, Tokyo, Japan) and ImageJ software (NIH, USA). The MBP positive areas optical densities in the ipsilateral and contralateral hemispheres were measured. […]

[2] = tested on: intact cells in hippocampus and cortex; assay: Ex.4 therapeutic HIE rat model: intact cell counting; type: in vivo
Procedure: Paraformaldehyde-fixed paraffin embedded samples of the removed brains were coronally sectioned at the same level of the hippocampus region in accordance to the Paxinos rat brain atlas (Paxinos and Watson 2007. In: The rat brain in stereotaxic coordinates, 6th edition). Thickness of sections was 5 μm. Hematoxylin-eosin staining was performed. Briefly, sections were deparaffinized in xylene and rehydrated in graded ethanol concentrations before staining. Slides were stained with hematoxylin, rinsed for a few seconds in water, then placed in 1% eosin and washed, dehydrated, and coverslipped.
Intact cell counting was performed on hematoxylin-eosin-stained sections of the rat pups brains at magnification 400× in 3 fields of the respective brain area. Countings were performed in cortex and hippocampus (regions: dentate gyrus (DG), subgranular zone (SGZ), cornu ammonis (CA1, CA2/CA3)). The sections were analyzed with the aid of a microscope (Olympus BX51, Olympus, Tokyo, Japan), an image scanner (DotSlide Digital Virtual Microscopy, Olympus, Germany) and ImageJ software (NIH, US).
Intact cells are uninjured. Injured cells are characterized by a pale eosinophilic staining along with non-uniform nuclear densities-shrunken, condensed, or pale and enlarged.
To study the therapeutic effect of estetrol, newborn rat pups were assigned to one of the following 6 groups at postnatal day 7: sham group (n=29), vehicle group (n=20), 1 mg/kg E4 group (n=16), 5 mg/kg E4 group (n=19), 10 mg/kg day E4 (n=17) and 50 mg/kg day E4 group (n=15). At postnatal day 7 animals were anesthetized with isoflurane (induction, 3.0%; maintenance, 1.5%), and the rat pups from vehicle and E4 groups passed through surgery encompassing left common carotid artery double ligation and cut. After surgery, the pups were returned to their dams and allowed to recover for 1 hour. The pups were then placed in a humidified hypoxic in vivo cabinet (CoyLab). Hypoxia was produced by the inhalation of 11%-8% of oxygen balanced by nitrogen at decreased concentration of oxygen for 20 minutes, followed by inhalation of 8% oxygen and 92% nitrogen at constant concentration for 35 minutes. All the manipulations were performed at 37° C.
Upon retrieval from the hypoxia chamber the rat pups were injected intraperitoneally either by vehicle (vehicle group) or by E4 (1 mg/kg, 5 mg/kg, 10 mg/kg or 50 mg/kg) in accordance to the group assignment. The animals from the sham group went through similar procedures but proceeded neither left common carotid artery ligation and cut followed by hypoxia nor vehicle or estetrol administration. Rat pups recovered with their dams until being sacrificed at postnatal day 14.

[3] = tested on: MCF-7 cells; details: compared to E2; cited from earlier work

Question: Which “ratio of the MBP-positive area OD” value ([1]; 5 mg/kg/day E4 pre-treated) does the source give for `C[C@]12CC[C@@H]3c4ccc(O)cc4CC[C@H]3[C@@H]1[C@@H](O)[C@@H](O)[C@@H]2O` [E4, 1,3,5(10)-estratrien-3,15α,16α,17β-tetrol] here?
Answer: The value was “significantly higher”.

Question: And the “ratio of the MBP-positive area OD” value ([1]; 50 mg/kg/day E4 pre-treated)?
Answer: The value was “significantly higher”.

Question: What about the “number of intact cells per visual field” value ([2]; 1 mg/kg E4 single ip dose after HI, CA1) of the same molecule?
Answer: The value was 51.5±2.5.

Question: What about the “number of intact cells per visual field” value ([2]; 1 mg/kg E4 single ip dose after HI, CA2/CA3) of the same molecule?
Answer: The value was 33.9±4.306.

Question: And the “number of intact cells per visual field” value ([2]; 1 mg/kg E4 single ip dose after HI, cortex)?
Answer: Its value is 42.4±4.865.

Question: And the “number of intact cells per visual field” value ([2]; 5 mg/kg E4 single ip dose after HI, CA1)?
Answer: The value was 45.3±2.989.

Question: What about the “number of intact cells per visual field” value ([2]; 5 mg/kg E4 single ip dose after HI, CA2/CA3) of the same molecule?
Answer: Its value is 33.8±4.704.

Question: And the “number of intact cells per visual field” value ([2]; 5 mg/kg E4 single ip dose after HI, cortex)?
Answer: Its value is 57.1±7.012.

Question: What about the “number of intact cells per visual field” value ([2]; 10 mg/kg E4 single ip dose after HI, CA1) of the same molecule?
Answer: Its value is 46.0±3.19.

Question: And the “number of intact cells per visual field” value ([2]; 10 mg/kg E4 single ip dose after HI, CA2/CA3)?
Answer: The value was 35.2±3.169.

Question: And the “number of intact cells per visual field” value ([2]; 10 mg/kg E4 single ip dose after HI, cortex)?
Answer: The value was 56.9±5.958.

Question: And the “number of intact cells per visual field” value ([2]; 50 mg/kg E4 single ip dose after HI, CA1)?
Answer: Its value is 46.6±5.336.

Question: And the “number of intact cells per visual field” value ([2]; 50 mg/kg E4 single ip dose after HI, CA2/CA3)?
Answer: The value was 30.5±2.527.

Question: What about the “number of intact cells per visual field” value ([2]; 50 mg/kg E4 single ip dose after HI, cortex) of the same molecule?
Answer: Its value is 54.5±3.403.

Question: And the “estrogenic activity in growth promotion of MCF-7 cells” value [3]?
Answer: The value was “weak estrogen”.
